This is an account of results in patent US20230322761A1, “DEGRADATION OF BRUTON'S TYROSINE KINASE (BTK) BY CONJUGATION OF BTK INHIBITORS WITH E3 LIGASE LIGAND AND METHODS OF USE” (BEIGENE, LTD., priority 2020, published 2023).

The target of the assay is T1, BTK (Homo sapiens, UniProt Q06187).
T1 construct: endogenous in cells; host or cells: TMD-8 cells
Put plainly: BTK degradation in TMD-8 cells, HTRF assay after 6 h treatment. Format: cell-based. The settings on record: for DC50: IC50 (DC50) of BTK degradation. An outline of the steps:
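TMD-8 cells treated for 6 h with 8 compound doses in 6-fold dilution steps from a 1 mM 500× DMSO stock (0.2% DMSO), then lysed 30 min at room temperature. BTK in lysate detected by HTRF (665/620 nm) after overnight antibody incubation; DC50 from four-parameter curve fit.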
Background: In TR-FRET formats the signal depends on donor and acceptor labels being close together.

The structures appear in SMILES notation.

T1 sequence (Q06187 whole entry): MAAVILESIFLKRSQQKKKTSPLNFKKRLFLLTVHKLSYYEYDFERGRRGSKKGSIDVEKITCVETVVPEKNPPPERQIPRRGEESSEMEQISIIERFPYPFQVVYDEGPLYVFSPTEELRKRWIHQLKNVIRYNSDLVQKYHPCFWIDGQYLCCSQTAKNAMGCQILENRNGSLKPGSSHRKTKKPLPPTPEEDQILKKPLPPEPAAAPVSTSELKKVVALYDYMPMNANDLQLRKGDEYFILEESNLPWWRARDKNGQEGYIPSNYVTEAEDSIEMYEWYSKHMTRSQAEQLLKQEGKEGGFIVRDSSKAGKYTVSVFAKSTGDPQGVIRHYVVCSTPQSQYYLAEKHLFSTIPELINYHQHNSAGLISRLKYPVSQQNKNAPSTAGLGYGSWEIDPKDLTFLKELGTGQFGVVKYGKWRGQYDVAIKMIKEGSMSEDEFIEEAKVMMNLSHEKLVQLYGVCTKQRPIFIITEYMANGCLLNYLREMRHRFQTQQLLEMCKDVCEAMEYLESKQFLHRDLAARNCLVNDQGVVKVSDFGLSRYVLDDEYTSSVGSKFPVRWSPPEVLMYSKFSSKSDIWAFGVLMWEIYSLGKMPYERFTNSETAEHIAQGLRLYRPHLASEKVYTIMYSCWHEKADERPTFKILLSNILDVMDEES

One may read the DC50 as the midpoint of the concentration-degradation curve. Low readings indicate degradation at low concentration, high ones degradation only at high concentration. Compound `Cc1cc(-c2n[nH]c3ncc(-c4ccc(N5CCN(CCc6ccc(C7CCC(=O)NC7=O)cn6)CC5)cc4)cc23)ccc1CNC(=O)c1noc(C(C)(C)C)n1` (centres unmarked) [Example 229, 5-(tert-butyl)-N-(4-(5-(4-(4-(2-(5-(2,6-dioxopiperidin-3-yl)pyridin-2-yl)ethyl)piperazin-1-yl)phenyl)-1H-pyrazolo[3,4-b]pyridin-3-yl)-2-methylbenzyl)-1,2,4-oxadiazole-3-carboxamide] came in with a DC50 of 0.427 nM.
Same read-out and setting: as for `Cc1cc(-c2n[nH]c3ncc(-c4ccc(C5(F)CCN(CC6CCN(c7ccc(N8CCC(=O)NC8=O)cc7)CC6)CC5)cc4)cc23)ccc1[C@@H](C)NC(=O)c1nc(C(C)(C)C)no1` [Example 203, (R)-3-(tert-butyl)-N-(1-(4-(5-(4-(1-((1-(4-(2,4-dioxotetrahydropyrimidin-1(2H)-yl)phenyl)piperidin-4-yl)methyl)-4-fluoropiperidin-4-yl)phenyl)-1H-pyrazolo[3,4-b]pyridin-3-yl)-2-methylphenyl)ethyl)-1,2,4-oxadiazole-5-carboxamide], the figure is 5.27 nM.
For orientation: Dmax means the greatest extent of degradation seen. Compound `Cc1cc(-c2n[nH]c3ncc(-c4ccc(C5CCN(CCC6CCN(c7ccc(N8CCC(=O)NC8=O)c(Cl)c7)CC6)CC5)cc4)cc23)ccc1CNC(=O)c1nc(C(C)(C)C)no1` [Example 23, 3-(tert-butyl)-N-(4-(5-(4-(1-(2-(1-(3-chloro-4-(2,4-dioxotetrahydropyrimidin-1(2H)-yl)phenyl)piperidin-4-yl)ethyl)piperidin-4-yl)phenyl)-1H-pyrazolo[3,4-b]pyridin-3-yl)-2-methylbenzyl)-1,2,4-oxadiazole-5-carboxamide] came in with a 50% degradation concentration (DC50) of 4.04 nM. Further, the Dmax (TMD8, maximum percentage of inhibition (degradation)) turned out to be 96%.
The compound `Cc1c(CNC(=O)c2noc(C(C)(C)C)n2)ccc(-c2n[nH]c3ncc(-c4ccc(N5CCN(CC6CCN(c7ccc(N8CCC(=O)NC8=O)cc7)CC6)CC5)cc4)cc23)c1F` [Example 99, 5-(tert-butyl)-N-(4-(5-(4-(4-((1-(4-(2,4-dioxotetrahydropyrimidin-1(2H)-yl)phenyl)piperidin-4-yl)methyl)piperazin-1-yl)phenyl)-1H-pyrazolo[3,4-b]pyridin-3-yl)-3-fluoro-2-methylbenzyl)-1,2,4-oxadiazole-3-carboxamide] had a half-maximal degradation concentration (DC50) of 17.8 nM.
